Data from patent US20170165293A1, “METHOD AND APPARATUS FOR SCAVENGING PLASMA FREE HEMOGLOBIN” (GENO LLC, priority 2015, published 2017).
Read-outs that look alike come from different tables or passages of the source.

How the values were obtained:
cell-free Hb = cell-free Hb (Homo sapiens, UniProt P68871+P69905); conditions: cited from earlier work
LPS-induced lung injury = format: in vivo, mice
[1] = system: polymicrobial sepsis-induced lung injury; conditions: in vivo
[2] = system: free water-induced intravascular hemolysis; conditions: in vivo; cited from earlier work
HIF = conditions: cited from earlier work
NO = conditions: cited from earlier work; for NO consumption ability of plasma compared to controls with infused albumin and saline: samples collected after infusion, both p<0.0001
[3] = several time points; cited from earlier work
canines = conditions: cited from earlier work; for mean SVRI compared to controls (albumin and saline) / mean MAP compared to controls (albumin and saline): 1-3 hr, after 1-hour infusion; for mean SVRI compared to controls (albumin and saline): oxyHb p<0.0001, metHb p=0.04; for mean MAP compared to controls (albumin and saline): oxyHb p<0.0001, metHb p=0.05
[4] = system: brain ischemia-reperfusion injury; conditions: acute rat model, focal ischemia-reperfusion, inhaled; cited from earlier work
chrondrocytes = conditions: cited from earlier work

Chain of cell-free Hb (P69905 2-142 limits assumed): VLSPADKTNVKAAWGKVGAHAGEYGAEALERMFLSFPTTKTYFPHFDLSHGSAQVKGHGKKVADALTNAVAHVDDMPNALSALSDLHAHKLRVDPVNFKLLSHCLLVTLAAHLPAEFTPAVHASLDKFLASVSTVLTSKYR
Chain of cell-free Hb (P68871 2-147 limits assumed): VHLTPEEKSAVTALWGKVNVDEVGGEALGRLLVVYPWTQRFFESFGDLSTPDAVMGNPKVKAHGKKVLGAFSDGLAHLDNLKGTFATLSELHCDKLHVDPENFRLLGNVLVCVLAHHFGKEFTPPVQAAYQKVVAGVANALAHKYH

Q: What does the source list for “cell-free Hb: cell-free hemoglobin infused with or without inhaled NO”?
A: species of the cell-free Hb (cell-free Hb; animals breathing air (n=2)): remained predominantly oxyhemoglobin; SVRI (cell-free Hb; infusion of cell-free Hb): increases; pulmonary vascular resistance index (cell-free Hb; infusion of cell-free Hb): increases

Q: For nitric oxide [inhaled NO], which “LPS-induced pulmonary early and late NF-κB activation” value (LPS-induced lung injury; mouse, in vivo) is on record?
A: inhibited

Q: And the cell apoptosis (LPS-induced lung injury; mouse, in vivo)?
A: down-regulated

Q: What about the lung injury (LPS-induced lung injury; mouse, in vivo) of the same compound?
A: significantly improved

Q: What about the pulmonary inflammation (LPS-induced lung injury; mouse, in vivo) of the same compound?
A: down-regulated

Q: And the “lung injury in polymicrobial sepsis” value [1]?
A: significantly attenuated

Q: And the MAP [2]?
A: no net effect

Q: And the SVRI [2]?
A: no net effect

Q: And the “effect of sodium nitroprusside on CI during hemolysis” value [2]?
A: restored

Q: What about the “effect of sodium nitroprusside on SVRI during hemolysis” value [2] of the same compound?
A: restored

Q: What about the “hypertensive effects associated with intravascular free water induced hemolysis and release of cell-free oxyHb” value [2] of the same compound?
A: completely eliminates

Q: What about the “impairment in the ability of the kidneys to compensate for hyponatremia (serum sodium levels)” value [2] of the same compound?
A: attenuated

Q: And the “increase in MAP caused by free water-induced intravascular hemolysis” value [2]?
A: attenuated

Q: And the “increase in SVRI caused by free water-induced intravascular hemolysis” value [2]?
A: attenuated

Q: And the six-hour creatinine clearance [2]?
A: intermediate clearance

Q: And the systemic blood pressure [2]?
A: miniscule or no measurable effects

Q: And the “total plasma Hb composition” value [2]?
A: predominantly methemoglobin

Q: And the vasoconstriction [2]?
A: prevent vasoconstriction

Q: What about the “increase in SVRI on infusion of cell-free Hb” value (cell-free Hb; animals breathing NO (n=2)) of the same compound?
A: attenuated

Q: What about the “increase in pulmonary vascular resistance index on infusion of cell-free Hb” value (cell-free Hb; animals breathing NO (n=2)) of the same compound?
A: attenuated

Q: What about the “species of the cell-free Hb” value (cell-free Hb; animals breathing NO (n=2)) of the same compound?
A: converted to methemoglobin

Q: What about the “effect on HIF” value (HIF; high doses and after 30 minutes) of the same compound?
A: inhibitory

Q: And the “effect on HIF” value (HIF; low dose, for 30 minutes, during hypoxia)?
A: stimulates

Q: For “oxyHb: cell-free oxyhemoglobin (Fe2+-O2) infused into animals”, which “increase in NO consumption ability of plasma, ranking” value (NO; among infused groups) is on record?
A: highest

Q: And the “NO consumption ability of plasma compared to controls with infused albumin and saline” value (NO)?
A: Elevated

Q: What about the “mean plasma nitrite levels compared to controls” value [3] of the same compound?
A: similar

Q: And the “mean SVRI compared to controls (albumin and saline)” value (canines)?
A: significant elevations

Q: And the “mean MAP compared to controls (albumin and saline)” value (canines)?
A: significant elevations

Q: What about the MAP (canines; 2 hours after the oxyHb infusion ended, same rate as during the infusion) of the same compound?
A: continued to steadily increase

Q: And the “increase in MAP” value (canines; oxyHb infusion, from 0 to 3 hr, p<0.0001)?
A: 27%

Q: With “metHb: cell-free ferric methemoglobin (Fe3+) infused into animals” as the compound, how does the “NO consumption by plasma relative to the infused oxyHb-containing plasma” value (NO; p=0.009) read?
A: 10 fold lower

Q: And the “NO consumption ability of plasma compared to controls with infused albumin and saline” value (NO)?
A: Elevated

Q: What about the “mean plasma nitrite levels compared to controls” value [3] of the same compound?
A: similar

Q: And the “mean SVRI compared to controls (albumin and saline)” value (canines)?
A: elevations

Q: What about the “mean MAP compared to controls (albumin and saline)” value (canines) of the same compound?
A: elevations

Q: What about the vascular pressures (canines; cell-free metHb infusions, after being reduced to oxyHb) of the same compound?
A: increase

Q: And the “clearance / stability in plasma compared with cell-free oxyHb” value (canines; in vivo)?
A: cleared faster and/or is less stable

Q: What about the “increase in MAP compared to the oxyHb infusions” value (canines; similar concentrations of Hb solutions over 1 hour, p=0.006) of the same compound?
A: significantly less of an increase

Q: What about the “increase in SVRI compared to the oxyHb infusions” value (canines; similar concentrations of Hb solutions over 1 hour, p=0.04) of the same compound?
A: significantly less of an increase

Q: And the “correlation of metHb levels converted from infused oxyHb with changes in MAP” value (canines; throughout the experiment)?
A: not correlated

Q: Which results are given for `[HH]` [H2, hydrogen]?
A: LPS-induced pulmonary early and late NF-κB activation (LPS-induced lung injury; H2 and/or NO treatment): inhibited; cell apoptosis (LPS-induced lung injury; H2 and/or NO treatment): down-regulated; pulmonary inflammation (LPS-induced lung injury; H2 and/or NO treatment): down-regulated; lung injury (LPS-induced lung injury; intratracheal LPS, 2% H2 and/or 20 ppm NO for 3 hours starting at 5 minutes or 3 hours after LPS): significantly improved; lung injury in polymicrobial sepsis [1]: significantly attenuated; brain injury [4]: markedly suppressed; generation of hydroxyl radicals and peroxynitrite (chrondrocytes): selectively reduce
